According to patent EP4603105A1, “PHARMACEUTICAL COMPOSITION CONTAINING CYCLIC COMPOUND HAVING SELECTIVE KRAS INHIBITORY EFFECT AGAINST HRAS AND NRAS” (CHUGAI SEIYAKU KABUSHIKI KAISHA, priority 2022, dated 2024):
Where two headings read alike, the source gives them in different places.

Legend:
[1] = molecular target: HRAS wild-type protein (Homo sapiens, UniProt P01112); test: Binding to HRAS by surface plasmon resonance (SPR), KD and KD ratio to KRAS
Outline: (§1)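 Affinity is measured by surface plasmon resonance at 30°C against captured, GDP-loaded RAS carrying a biotinylated Avi tag. Compounds are titrated by single-cycle kinetics, and KD comes from a 1:1 fit.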

[2] = system: human lung cancer strain NCI-H441; test: NCI-H441 cell proliferation inhibitory activity (CellTiter-Glo, 4 days); assay type: cell-based; conditions: read-out: NCl-H441 IC50
Outline: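 Readout: […] after the ATP-based reagent. Compound: serial dilutions in dimethyl sulfoxide.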

[3] = molecular target: GDP-bound KRAS wild-type protein (Homo sapiens, UniProt P01116); test: Binding to KRAS by surface plasmon resonance (SPR), dissociation constant KD
GDP-bound KRAS wild-type protein, sequence (P01116 1-188 isoform P01116-2): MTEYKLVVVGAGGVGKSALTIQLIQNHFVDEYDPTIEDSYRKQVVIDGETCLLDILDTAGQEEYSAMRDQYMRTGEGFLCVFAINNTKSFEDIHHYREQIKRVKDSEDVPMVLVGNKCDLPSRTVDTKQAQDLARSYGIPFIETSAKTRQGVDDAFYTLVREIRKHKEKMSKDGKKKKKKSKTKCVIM
Outline: as §1

[4] = molecular target: GDP-bound NRAS wild-type protein (Homo sapiens, UniProt P01111); test: Binding to NRAS by surface plasmon resonance (SPR), KD and KD ratio to KRAS
GDP-bound NRAS wild-type protein, sequence (P01111 whole entry): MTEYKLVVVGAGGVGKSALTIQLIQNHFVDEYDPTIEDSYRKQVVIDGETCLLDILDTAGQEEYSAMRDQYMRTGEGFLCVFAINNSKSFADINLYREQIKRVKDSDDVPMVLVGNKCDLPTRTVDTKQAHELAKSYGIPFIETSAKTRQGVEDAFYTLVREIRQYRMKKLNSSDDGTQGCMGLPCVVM
Outline: as §1

[5] = ratio of KD with respect to HRAS wild-type protein to KD with respect to KRAS
[6] = 50% proliferation inhibitory concentration, four days
[7] = Single Cycle Kinetics, 1:1 binding model
[8] = ratio of KD with respect to GDP-bound NRAS wild-type protein to KD with respect to KRAS
[9] = ratio of KD for HRAS wild-type protein to KD for KRAS
[10] = ratio of KD for GDP-bound NRAS wild-type protein to KD for KRAS

HRAS wild-type protein, sequence (P01112 whole entry): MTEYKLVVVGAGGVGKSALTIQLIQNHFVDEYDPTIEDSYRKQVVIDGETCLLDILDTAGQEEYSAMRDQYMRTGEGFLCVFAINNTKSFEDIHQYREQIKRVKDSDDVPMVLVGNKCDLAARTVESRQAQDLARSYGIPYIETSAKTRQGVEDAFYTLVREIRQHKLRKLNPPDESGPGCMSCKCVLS

SMILES	HRAS /KRAS [1, 5]	IC50 [2, 6] [nM]	Kd [3, 7] [nM]	NRAS /KRAS [4, 8]	HRAS /KRAS [1, 9]	IC50 ([2]; NCI-H441 cells, 4 days) [nM]	Kd ([3]; 1:1 binding model) [nM]	NRAS /KRAS [4, 10]	Kd ([3]; Single Cycle Kinetics) [nM]
CCO[C@@H]1C[C@H]2C(=O)NC3(CCC3)C(=O)N(C)[C@@H](C3CCCC3)C(=O)N(C)[C@H](C(=O)N(C)C)CC(=O)N(C)[C@@H](COC3CC3)C(=O)N[C@@H]([C@@H](C)CC)C(=O)N(C)CC(=O)N(C)[C@H]3C/C=C\CCN(C3=O)[C@@H](Cc3ccc(C(F)(F)F)cc3)C(=O)N(C)CC(=O)N[C@@H](CCc3cc(F)c(C(F)(F)F)c(F)c3)C(=O)N2C1 [PP1268]	A (a compound having 10 or more and less than 20 is denoted as A)	12.1	0.045	A (a compound having 10 or more and less than 20 is denoted as A)					
CCCOC[C@H]1C(=O)N[C@@H]([C@@H](C)CC)C(=O)N2CCC[C@H]2C(=O)N(C)[C@H]2C/C=C\CCN(C2=O)[C@@H](CC2CCC(F)(F)CC2)C(=O)N(C)CC(=O)N[C@@H](CCc2ccc(C(F)(F)F)c(OC)c2)C(=O)N2C[C@@H](C)C[C@H]2C(=O)N(C)C2(CCC2)C(=O)N(C)[C@@H](C2CCCC2)C(=O)N(C)[C@H](C(=O)N(C)C)CC(=O)N1C [PP2381]					A (a compound having 10 or more and less than 20 is denoted as A)	3.2	0.93	A (a compound having 10 or more and less than 20 is denoted as A)	
CCO[C@@H]1C[C@H]2C(=O)NC3(CCCC3)C(=O)N(C)[C@@H](C3CCCC3)C(=O)N(C)[C@H](C(=O)N3CCOCC3)CC(=O)N(C)[C@@H](CC)C(=O)N[C@@H]([C@@H](C)CC)C(=O)N(C)CC(=O)N(C)[C@H]3CC[C@@H](C)CN(C3=O)[C@@H](Cc3ccc(C(F)(F)F)cc3)C(=O)N(C)CC(=O)N[C@@H](CCc3cc(F)c(C(F)(F)F)c(F)c3)C(=O)N2C1 [PP1371]	B (a compound having 3 or more and less than 10 is denoted as B)	5.1	0.077	A (a compound having 10 or more and less than 20 is denoted as A)					
C#CC[C@H]1C(=O)N[C@@H]([C@@H](C)CC)C(=O)N2CCCC[C@H]2C(=O)N(C)[C@H]2C/C=C\CCN(C2=O)[C@@H](Cc2ccc(C(F)(F)F)cc2)C(=O)N(C)CC(=O)N[C@@H](CCc2cc(F)c(C(F)(F)F)c(F)c2)C(=O)N2C[C@H](OCC)C[C@H]2C(=O)N(C)C2(CCC2)C(=O)N(C)[C@@H](C2CCCC2)C(=O)N(C)[C@H](C(=O)N(C)C)CC(=O)N1C [PP3259]					B (a compound having 3 or more and less than 10 is denoted as B)	49.8		A (a compound having 10 or more and less than 20 is denoted as A)	1.2
CC[C@H](C)[C@@H]1NC(=O)[C@H](COC)N(C)C(=O)C[C@@H](C(=O)N(C)C)N(C)C(=O)[C@H](C2CCCC2)N(C)C(=O)C2(CC(C)(C)C2)NC(=O)[C@@H]2C[C@@H](OC(C)C)CN2C(=O)[C@H](CCc2ccc(Cl)c(Cl)c2)NC(=O)CN(C)C(=O)[C@H](CC2CCCCC2)N2CC/C=C\C[C@@H](C2=O)N(C)C(=O)CN(C2CC2)C1=O [PP2513]					A (a compound having 10 or more and less than 20 is denoted as A)	303	2.6	A (a compound having 10 or more and less than 20 is denoted as A)	
CCCN(C)C(=O)[C@@H]1CC(=O)N(C)[C@@H](CC(C)C)C(=O)N[C@@H]([C@@H](C)CC)C(=O)N(C)CC(=O)N(C)[C@H]2C/C=C\CCN(C2=O)[C@@H](Cc2ccc(C(F)(F)F)cc2)C(=O)N(C)CC(=O)N[C@@H](CCc2cc(F)c(C(F)(F)F)c(F)c2)C(=O)N2C[C@H](OCC)C[C@H]2C(=O)N[C@]2(C[C@H](OC)C2)C(=O)N(C)[C@@H](C2CCCC2)C(=O)N1C [PP3353]					A (a compound having 10 or more and less than 20 is denoted as A)	14.1		A (a compound having 10 or more and less than 20 is denoted as A)	0.17
CCO[C@@H]1C[C@H]2C(=O)NC3(CCC3)C(=O)N(C)[C@@H](C3CCCC3)C(=O)N(C)[C@H](C(=O)N(C)C)CC(=O)N(C)[C@@H](CC3CC3)C(=O)N[C@@H]([C@@H](C)CC)C(=O)N(C)CC(=O)N(C)[C@H]3C/C=C\CCN(C3=O)[C@@H](Cc3ccc(C(F)(F)F)cc3)C(=O)N(C)CC(=O)N[C@@H](CCc3ccc(Cl)c(Cl)c3)C(=O)N2C1 [PP1253]	A (a compound having 10 or more and less than 20 is denoted as A)	22.2	0.2	A (a compound having 10 or more and less than 20 is denoted as A)					
CCC[C@H]1C(=O)N[C@@H]([C@@H](C)CC)C(=O)N(C)CC(=O)N(C)[C@H]2C/C=C\CCN(C2=O)[C@@H](CC2CCCCC2)C(=O)N(C)CC(=O)N[C@@H](CCc2cc(F)c(C(F)(F)F)c(F)c2)C(=O)N2C[C@H](OCC)C[C@H]2C(=O)NC2(CCC2)C(=O)N(C)[C@@H](C2CCCC2)C(=O)N(C)[C@H](C(=O)N(C)C)CC(=O)N1C [PP1464]	A (a compound having 10 or more and less than 20 is denoted as A)	32.3	0.15	A (a compound having 10 or more and less than 20 is denoted as A)					
CCC[C@H]1C(=O)N[C@@H]([C@@H](C)CC)C(=O)N(C)CC(=O)N(C)[C@H]2C/C=C\CCN(C2=O)[C@@H](Cc2ccc(C)cc2)C(=O)N(C)CC(=O)N[C@@H](CCc2ccc(Cl)c(Cl)c2)C(=O)N2C[C@H](OC(C)C)C[C@H]2C(=O)NC2(CC(C)(C)C2)C(=O)N(C)[C@@H](C(CC)CC)C(=O)N(C)[C@H](C(=O)N(C)C)CC(=O)N1C [PP2537]					A (a compound having 10 or more and less than 20 is denoted as A)	75.1	0.74	AA (a compound having 20 or more is denoted as AA)	
CCO[C@@H]1C[C@H]2C(=O)NC3(CCC3)C(=O)N(C)[C@@H](C3CCCC3)C(=O)N(C)[C@H](C(=O)N3CCCCC3)CC(=O)N(C)[C@@H](CC)C(=O)N[C@@H]([C@@H](C)CC)C(=O)N(C)CC(=O)N(C)[C@H]3C/C=C\CCN(C3=O)[C@@H](Cc3ccc(C(F)(F)F)cc3)C(=O)N(C)CC(=O)N[C@@H](CCc3cc(F)c(C(F)(F)F)c(F)c3)C(=O)N2C1 [PP1289]	A (a compound having 10 or more and less than 20 is denoted as A)	34.7	0.17	AA (a compound having 20 or more is denoted as AA)					
CCO[C@@H]1C[C@H]2C(=O)NC3(CCC3)C(=O)N(C)[C@@H](C3CCCC3)C(=O)N(C)[C@H](C(=O)N3CCOCC3)CC(=O)N(C)[C@@H](Cc3ccsc3)C(=O)N[C@@H]([C@@H](C)CC)C(=O)N(C)CC(=O)N(C)[C@H]3CCCCCN(C3=O)[C@@H](Cc3ccc(C(F)(F)F)cc3)C(=O)N(C)CC(=O)N[C@@H](CCc3cc(F)c(C(F)(F)F)c(F)c3)C(=O)N2C1 [PP1164]	B (a compound having 3 or more and less than 10 is denoted as B)	95.9	0.52	B (a compound having 3 or more and less than 10 is denoted as B)					
CCC[C@H]1C(=O)N[C@@H](C2CCCC2)C(=O)N(C)CC(=O)N(C)[C@H]2C/C=C\CCN(C2=O)[C@@H](Cc2ccc(C(F)(F)F)cc2)C(=O)N(C)CC(=O)N[C@@H](CCc2ccc(C(F)(F)F)c(Cl)c2)C(=O)N2CC3(CC3)C[C@H]2C(=O)N(C)C2(CCC2)C(=O)N(C)[C@@H](C(CC)CC)C(=O)N(C)[C@H](C(=O)N(C)C)CC(=O)N1C [PP3321]					A (a compound having 10 or more and less than 20 is denoted as A)	8		AA (a compound having 20 or more is denoted as AA)	0.85
C#CCN1CC(=O)N(C)[C@H]2C/C=C\CCN(C2=O)[C@@H](Cc2ccc(C(F)F)cc2)C(=O)N(C)CC(=O)N[C@@H](CCc2cc(F)c(C(F)(F)F)c(F)c2)C(=O)N2C[C@H](OCC)C[C@H]2C(=O)N(C)C2(CCC2)C(=O)N(C)[C@@H](C(CC)CC)C(=O)N(C)[C@H](C(=O)N(C)C)CC(=O)N(C)[C@@H](COCCC)C(=O)N[C@@H]([C@@H](C)OC)C1=O [PP3506]					A (a compound having 10 or more and less than 20 is denoted as A)	12.5		A (a compound having 10 or more and less than 20 is denoted as A)	0.73
CCC[C@H]1C(=O)N[C@@H]([C@@H](C)CC)C(=O)N(C)CC(=O)N(C)[C@H]2C/C=C\CCN(C2=O)[C@@H](Cc2ccc(C)cc2)C(=O)N(C)CC(=O)N[C@@H](CCc2ccc(Cl)c(Cl)c2)C(=O)N2C[C@H](OC3CCC3)C[C@H]2C(=O)NC2(CC(C)(C)C2)C(=O)N(C)[C@@H](C(CC)CC)C(=O)N(C)[C@H](C(=O)N(C)C)CC(=O)N1C [PP2644]					A (a compound having 10 or more and less than 20 is denoted as A)	75	0.81	AA (a compound having 20 or more is denoted as AA)	
CCO[C@@H]1C[C@H]2C(=O)NC3(CCC3)C(=O)N(C)[C@@H](C3CCCC3)C(=O)N(C)[C@H](C(=O)N(C)C)CC(=O)N(C)[C@@H](CC3CCCC3)C(=O)N[C@@H]([C@@H](C)CC)C(=O)N(C)CC(=O)N(C)[C@H]3C/C=C\CCN(C3=O)[C@@H](Cc3ccc(C(F)(F)F)cc3)C(=O)N(C)CC(=O)N[C@@H](CCc3ccc(Cl)c(Cl)c3)C(=O)N2C1 [PP1254]	A (a compound having 10 or more and less than 20 is denoted as A)	28.3	0.2	AA (a compound having 20 or more is denoted as AA)					
